These results are taken from publication PMC9030254, “Target Hopping from Protein Kinases to PXR: Identification of Small-Molecule Protein Kinase Inhibitors as Selective Modulators of Pregnane X Receptor from TüKIC Library” (Cells, 2022).

Assay in all cases: Kinase profiling
Assay type in all cases: biochemical

Assay [1] addresses T1, TYK2 (Homo sapiens, UniProt P29597).
T1 construct: purchased ProQinase (Freiburg, Germany)
As to the method: (§1) The analysis was performed by ProQinase (Freiburg, Germany).

Assay [2] has as its target T2, CDK3/CycC (Homo sapiens, UniProt Q00526).
T2 construct: purchased ProQinase (Freiburg, Germany)
As to the method:
as §1

Assay [3] has as its target T3, JAK1 (Homo sapiens, UniProt P23458).
T3 construct: purchased ProQinase (Freiburg, Germany)
As to the method:
as §1

In assay [4] the target is T4, TAOK3 (Homo sapiens, UniProt Q9H2K8).
T4 construct: purchased ProQinase (Freiburg, Germany)
T4 sequence (Q9H2K8 1-898): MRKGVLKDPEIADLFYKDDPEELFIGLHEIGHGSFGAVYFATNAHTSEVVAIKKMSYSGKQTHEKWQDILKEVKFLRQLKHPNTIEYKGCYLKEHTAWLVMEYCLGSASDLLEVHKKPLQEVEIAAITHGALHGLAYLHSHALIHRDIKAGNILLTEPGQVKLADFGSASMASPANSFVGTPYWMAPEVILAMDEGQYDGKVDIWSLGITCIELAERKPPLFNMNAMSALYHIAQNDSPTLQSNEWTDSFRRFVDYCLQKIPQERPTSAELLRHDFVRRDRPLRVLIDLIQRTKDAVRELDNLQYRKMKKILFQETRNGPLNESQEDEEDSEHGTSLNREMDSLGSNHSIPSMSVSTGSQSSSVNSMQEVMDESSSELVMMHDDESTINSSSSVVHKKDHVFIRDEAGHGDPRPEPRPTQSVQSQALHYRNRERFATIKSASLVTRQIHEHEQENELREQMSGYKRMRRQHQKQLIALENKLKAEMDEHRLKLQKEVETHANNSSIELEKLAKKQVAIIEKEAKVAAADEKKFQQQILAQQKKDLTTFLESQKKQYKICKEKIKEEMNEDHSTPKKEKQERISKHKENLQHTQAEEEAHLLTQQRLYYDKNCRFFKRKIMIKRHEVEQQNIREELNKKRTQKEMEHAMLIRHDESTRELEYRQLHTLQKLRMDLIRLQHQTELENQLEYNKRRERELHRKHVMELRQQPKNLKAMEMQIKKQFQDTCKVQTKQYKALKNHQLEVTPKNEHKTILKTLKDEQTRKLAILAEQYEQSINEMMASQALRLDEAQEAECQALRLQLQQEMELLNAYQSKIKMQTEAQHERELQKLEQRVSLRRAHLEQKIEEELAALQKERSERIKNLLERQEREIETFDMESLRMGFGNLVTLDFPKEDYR
As to the method:
as §1

Assay [5] has as its target T5, HIPK4 (Homo sapiens, UniProt Q8NE63).
T5 construct: purchased ProQinase (Freiburg, Germany)
T5 sequence (Q8NE63 1-616): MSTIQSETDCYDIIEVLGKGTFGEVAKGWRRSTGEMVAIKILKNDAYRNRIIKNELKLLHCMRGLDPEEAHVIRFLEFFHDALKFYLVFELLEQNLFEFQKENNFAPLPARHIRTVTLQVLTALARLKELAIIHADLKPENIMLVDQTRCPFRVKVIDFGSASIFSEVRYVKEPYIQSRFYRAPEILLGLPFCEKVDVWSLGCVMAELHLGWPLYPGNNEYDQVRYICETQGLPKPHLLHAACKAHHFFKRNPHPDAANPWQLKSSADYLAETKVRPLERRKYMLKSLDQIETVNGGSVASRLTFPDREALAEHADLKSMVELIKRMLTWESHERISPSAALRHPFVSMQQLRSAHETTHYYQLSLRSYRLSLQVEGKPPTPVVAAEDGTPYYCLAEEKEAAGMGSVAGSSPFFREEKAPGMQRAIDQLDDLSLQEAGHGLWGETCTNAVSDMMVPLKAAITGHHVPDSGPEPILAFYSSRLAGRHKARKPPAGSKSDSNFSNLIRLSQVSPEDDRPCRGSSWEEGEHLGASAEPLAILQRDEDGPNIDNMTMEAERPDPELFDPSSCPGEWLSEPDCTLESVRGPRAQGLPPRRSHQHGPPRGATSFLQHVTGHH
The method, then:
as §1

Assay [6] addresses T6, JAK3 (Homo sapiens, UniProt P52333).
T6 construct: purchased ProQinase (Freiburg, Germany)
T6 sequence (P52333 1-1124): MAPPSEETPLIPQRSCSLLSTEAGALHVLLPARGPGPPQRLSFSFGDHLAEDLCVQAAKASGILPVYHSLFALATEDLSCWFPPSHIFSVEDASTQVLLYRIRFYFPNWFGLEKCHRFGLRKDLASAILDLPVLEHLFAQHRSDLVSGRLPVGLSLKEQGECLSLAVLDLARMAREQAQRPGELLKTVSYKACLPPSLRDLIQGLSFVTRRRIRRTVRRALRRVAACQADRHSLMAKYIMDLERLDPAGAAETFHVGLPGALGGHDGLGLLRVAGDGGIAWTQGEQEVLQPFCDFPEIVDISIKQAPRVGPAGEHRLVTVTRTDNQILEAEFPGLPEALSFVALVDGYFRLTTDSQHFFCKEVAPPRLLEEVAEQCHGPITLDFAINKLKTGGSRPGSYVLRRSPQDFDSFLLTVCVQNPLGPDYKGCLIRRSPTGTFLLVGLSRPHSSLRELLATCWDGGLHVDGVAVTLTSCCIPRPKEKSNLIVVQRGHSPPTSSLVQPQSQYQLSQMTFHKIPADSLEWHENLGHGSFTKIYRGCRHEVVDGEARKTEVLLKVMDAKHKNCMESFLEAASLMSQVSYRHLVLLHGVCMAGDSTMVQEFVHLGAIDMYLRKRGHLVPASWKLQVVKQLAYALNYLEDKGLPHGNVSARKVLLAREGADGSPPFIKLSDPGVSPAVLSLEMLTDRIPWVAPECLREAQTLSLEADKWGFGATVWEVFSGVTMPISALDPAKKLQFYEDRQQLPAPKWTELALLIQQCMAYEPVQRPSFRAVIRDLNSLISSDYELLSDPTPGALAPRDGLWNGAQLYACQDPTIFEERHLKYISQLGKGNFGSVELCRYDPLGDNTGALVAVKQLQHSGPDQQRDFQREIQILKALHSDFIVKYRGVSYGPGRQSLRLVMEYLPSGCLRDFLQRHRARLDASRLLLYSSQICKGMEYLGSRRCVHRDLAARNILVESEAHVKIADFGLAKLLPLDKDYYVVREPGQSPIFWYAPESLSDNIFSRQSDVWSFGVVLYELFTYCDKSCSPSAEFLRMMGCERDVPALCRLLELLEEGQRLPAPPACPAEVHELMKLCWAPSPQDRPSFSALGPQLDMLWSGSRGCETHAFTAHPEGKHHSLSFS
As to the method:
as §1

T1 sequence (P29597 whole entry): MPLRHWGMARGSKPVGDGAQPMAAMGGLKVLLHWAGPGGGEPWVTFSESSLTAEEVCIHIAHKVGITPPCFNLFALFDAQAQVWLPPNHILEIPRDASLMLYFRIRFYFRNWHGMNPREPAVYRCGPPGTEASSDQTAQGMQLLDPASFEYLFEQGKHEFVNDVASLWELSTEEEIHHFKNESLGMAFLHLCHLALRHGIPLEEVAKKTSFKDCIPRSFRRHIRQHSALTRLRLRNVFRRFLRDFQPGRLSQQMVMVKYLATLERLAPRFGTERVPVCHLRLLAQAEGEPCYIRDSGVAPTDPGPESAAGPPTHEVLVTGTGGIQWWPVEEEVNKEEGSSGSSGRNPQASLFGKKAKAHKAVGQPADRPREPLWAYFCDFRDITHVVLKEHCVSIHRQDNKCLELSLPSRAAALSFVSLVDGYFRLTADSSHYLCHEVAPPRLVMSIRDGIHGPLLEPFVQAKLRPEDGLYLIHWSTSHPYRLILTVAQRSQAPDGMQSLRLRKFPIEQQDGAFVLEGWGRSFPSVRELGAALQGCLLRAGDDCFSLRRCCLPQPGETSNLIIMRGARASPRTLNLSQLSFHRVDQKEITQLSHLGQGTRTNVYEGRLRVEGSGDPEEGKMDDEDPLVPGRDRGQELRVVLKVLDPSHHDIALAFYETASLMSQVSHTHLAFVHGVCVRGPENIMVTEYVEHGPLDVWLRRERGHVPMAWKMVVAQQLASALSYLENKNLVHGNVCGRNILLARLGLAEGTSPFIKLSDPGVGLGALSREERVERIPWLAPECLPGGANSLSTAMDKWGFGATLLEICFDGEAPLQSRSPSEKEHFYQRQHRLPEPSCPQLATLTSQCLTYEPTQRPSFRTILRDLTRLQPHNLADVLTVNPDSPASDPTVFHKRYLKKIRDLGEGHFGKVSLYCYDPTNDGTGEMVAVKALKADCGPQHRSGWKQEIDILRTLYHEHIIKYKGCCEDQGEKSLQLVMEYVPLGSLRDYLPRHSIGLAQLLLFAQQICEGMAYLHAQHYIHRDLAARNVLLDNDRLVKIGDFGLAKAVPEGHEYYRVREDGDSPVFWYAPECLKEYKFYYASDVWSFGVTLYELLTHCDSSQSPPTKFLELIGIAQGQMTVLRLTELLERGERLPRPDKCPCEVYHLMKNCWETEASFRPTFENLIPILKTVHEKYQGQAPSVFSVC
T3 sequence (P23458 whole entry): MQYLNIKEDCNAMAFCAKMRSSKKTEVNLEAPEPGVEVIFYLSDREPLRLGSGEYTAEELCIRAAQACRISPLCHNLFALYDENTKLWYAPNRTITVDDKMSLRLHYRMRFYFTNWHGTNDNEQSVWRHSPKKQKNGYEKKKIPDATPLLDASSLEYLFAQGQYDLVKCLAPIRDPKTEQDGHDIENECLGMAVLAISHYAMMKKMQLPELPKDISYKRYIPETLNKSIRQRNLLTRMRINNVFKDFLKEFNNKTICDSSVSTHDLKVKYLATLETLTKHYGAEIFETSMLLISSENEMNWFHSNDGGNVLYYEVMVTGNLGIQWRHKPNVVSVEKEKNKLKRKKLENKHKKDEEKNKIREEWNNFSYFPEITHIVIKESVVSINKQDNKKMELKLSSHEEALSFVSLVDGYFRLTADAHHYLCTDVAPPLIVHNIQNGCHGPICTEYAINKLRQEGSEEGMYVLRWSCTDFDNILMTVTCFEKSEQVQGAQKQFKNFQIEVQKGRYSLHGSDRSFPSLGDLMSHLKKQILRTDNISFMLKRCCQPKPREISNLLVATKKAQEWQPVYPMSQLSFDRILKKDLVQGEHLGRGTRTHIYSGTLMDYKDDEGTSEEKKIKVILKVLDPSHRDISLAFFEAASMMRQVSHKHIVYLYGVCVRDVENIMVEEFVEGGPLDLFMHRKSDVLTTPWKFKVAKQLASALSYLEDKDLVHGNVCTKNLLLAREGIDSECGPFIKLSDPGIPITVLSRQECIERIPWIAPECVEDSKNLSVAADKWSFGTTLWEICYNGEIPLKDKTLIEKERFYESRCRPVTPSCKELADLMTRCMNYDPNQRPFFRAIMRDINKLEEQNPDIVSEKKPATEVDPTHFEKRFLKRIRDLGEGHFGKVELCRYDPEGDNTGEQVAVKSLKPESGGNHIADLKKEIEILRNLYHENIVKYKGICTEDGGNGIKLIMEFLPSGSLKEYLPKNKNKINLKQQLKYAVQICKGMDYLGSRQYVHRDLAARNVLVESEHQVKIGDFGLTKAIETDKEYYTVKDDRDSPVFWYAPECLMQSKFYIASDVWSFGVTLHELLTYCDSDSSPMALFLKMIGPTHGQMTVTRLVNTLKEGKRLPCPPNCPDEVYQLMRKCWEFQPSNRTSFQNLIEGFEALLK
T2 sequence (Q00526 whole entry): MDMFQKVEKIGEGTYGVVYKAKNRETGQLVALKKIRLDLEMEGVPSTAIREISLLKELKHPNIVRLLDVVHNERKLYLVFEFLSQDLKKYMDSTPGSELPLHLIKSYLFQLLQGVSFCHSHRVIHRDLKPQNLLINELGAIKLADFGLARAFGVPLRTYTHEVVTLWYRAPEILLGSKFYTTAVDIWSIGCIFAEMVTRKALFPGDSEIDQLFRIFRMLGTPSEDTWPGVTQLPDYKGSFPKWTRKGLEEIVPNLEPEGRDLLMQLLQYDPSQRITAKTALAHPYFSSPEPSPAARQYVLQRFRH
T2 sequence (P24863 whole entry partner): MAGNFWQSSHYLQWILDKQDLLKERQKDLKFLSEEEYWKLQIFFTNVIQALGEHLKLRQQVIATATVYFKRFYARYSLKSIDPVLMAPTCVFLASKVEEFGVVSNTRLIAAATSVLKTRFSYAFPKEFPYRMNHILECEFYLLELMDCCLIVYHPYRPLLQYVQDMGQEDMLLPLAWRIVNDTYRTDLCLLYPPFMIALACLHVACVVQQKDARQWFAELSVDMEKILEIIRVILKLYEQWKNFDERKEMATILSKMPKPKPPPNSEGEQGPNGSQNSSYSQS

For `O=C(Cc1ccccc1)Nc1ccc(F)c(Nc2ccc3c(c2)CCCCC3=O)c1` [Compound 100], the Residual activity was 83 % of control in assay [1] (1.0E-05 M); 95 % of control in assay [1] (1.0E-06 M); 89 % of control in assay [2] (1.0E-05 M); 97 % of control in assay [2] (1.0E-06 M); 85 % of control in assay [3] (1.0E-05 M); 88 % of control in assay [3] (1.0E-06 M). Besides, the Residual activity is listed as 98 % of control in assay [4] (1.0E-05 M); 105 % of control in assay [4] (1.0E-06 M); 84 % of control in assay [5] (1.0E-05 M); 92 % of control in assay [5] (1.0E-06 M); 75 % of control in assay [6] (1.0E-05 M); 80 % of control in assay [6] (1.0E-06 M).
For the compound `O=C(Nc1ccc(F)c(Nc2ccc3c(c2)CCCCC3=O)c1)c1cccc(F)c1` [Compound 109], the Residual activity is on record as 93 % of control in assay [1] (1.0E-05 M); 102 % of control in assay [1] (1.0E-06 M); 96 % of control in assay [2] (1.0E-05 M); 87 % of control in assay [2] (1.0E-06 M); 88 % of control in assay [3] (1.0E-05 M); 77 % of control in assay [3] (1.0E-06 M). For the same compound, the Residual activity is recorded as 91 % of control in assay [4] (1.0E-05 M); 99 % of control in assay [4] (1.0E-06 M); 91 % of control in assay [5] (1.0E-05 M); 95 % of control in assay [5] (1.0E-06 M); 79 % of control in assay [6] (1.0E-05 M); 83 % of control in assay [6] (1.0E-06 M).
